Results on four compounds are retold here after patent US12528777B2, “Quinazolinones derivatives for treatment of non-alcoholic fatty liver disease, preparation and use thereof” (Council of Scientific and Industrial Research, priority 2020, dated 2026).

Entries after “also recorded” stand apart in the source; their conditions may differ.

One data set has as its system ATGL. Put plainly: ATGL level in primary mouse hepatocytes (western blot). Particulars: 24 hours. Type of data set: cell-based. As to the method: To further strengthen the efficiency of the compounds 9 and 107, primary hepatocytes were isolated from mice and these compounds were treated in a dose dependent manner for 24 hours. Primary hepatocytes and adipose tissue explants were isolated from mice and subjected to compound treatment for 24 hours at the doses of 100 nM, 500 nM and 1 μM. Post cell harvesting, western blot was carried out with the lysate to check the ATGL level. ATGL and COP1 antibodies were used. Actin served the purpose of a loading control.
1. Hepatocytes—2-4 months old chow-fed black male mouse (C57bl/6) was sacrificed using chloroform (SRL) and was cleaned with 70% ethanol. […] Blood was drawn from the heart in order to prevent backflow into liver while perfusion. The butterfly cannula was inserted into the PV and 20 ml of HBSS (Hank's Balanced Salt Solution; 5 mM KCl, 0.4 mM KH2PO4, 4 mM NaHCO3, 140 mM NaCl, 0.3 mM Na2HPO4, 6 mM Glucose, HEPES, 0.5 mM MgCl2·6H2O, 0.4 mM MgSO4·7H2O, 0.5 mM EDTA; not containing 1 mM CaCl2)) was allowed to pass through the liver (Perfusion) at a constant flow rate of 3 ml/min, maintained by Masterflex digital peristaltic pump (Cole-Parmer). The IVC was cut as soon as the passage of the buffer through the liver began, so that blood and perfusate from liver is drained through the IVC. The liver blanched and became pale in color upon this treatment.
After the passage of HBSS, 25 ml of Collagenase (Roche) solution (1 mg/ml) in HBSS (containing 1 mM CaCl2)) was allowed to pass through the liver at a constant flow rate of 2 ml/min. After this digestion, the flow was stopped, the cannula removed and the pale and soggy lobes of the liver were gently excised from the body. The gall bladder was removed from the isolated liver. The pieces of digested liver tissue were then minced on a 10 cm culture plate in HBSS (containing 1 mM CaCl2)). The resulting suspension was then passed through a […] cell strainer (SPL) to allow hepatocytes to pass through to the filtrate and retain cellular clumps and undigested tissue. The filtrate was centrifuged at 50 g for 2 minutes at 4° C. […]
Background: A western blot detects proteins with antibodies after separation by electrophoresis.

Data set [1] relates to COP1. The data set can be described thus: qPCR of COP1 mRNA in HepG2 cells. It is filed as cell-based. The conditions noted are these: 5 μM and 10 μM, 24 hours. As for the experimental part:
Ubiquitination of ATGL by COP1 is a post translational event, therefore, it is expected that the mRNA level of ATGL will not change compared to control upon treatment with the compound of the present disclosure which inhibit COP1. To establish this, HepG2 cells were treated with 5 μM and 10 μM of the compounds 9, 107, 171, 179 and 73 for 24 hours. RNA was isolated using TRIzol reagent followed by chloroform treatment and precipitation with isopropanol. cDNA was obtained from the isolated RNA and qPCR was carried out using SyBr green reagent. COP1 and ATGL gene expression levels were checked. 18s was used as control. FIG. 8 illustrates that compounds exert no effect on the mRNA levels of ATGL.
A general note: In qPCR the cycle at which signal appears reflects the starting amount.

The target of data set [2] is COP1 (Homo sapiens, UniProt Q8NHY2). The data set can be described thus: In vitro ubiquitination of purified ATGL by COP1 with UbcH6. Type of data set: biochemical. Set-up: host or cells: HEK293A. Particulars: 5 μM compound, COP1 overexpressing HEK293A lysate. From the text: Purification of ATGL protein and obtaining COP1 overexpressing cell lysate: Myc-ATGL plasmid and Myc-DDK-COP1 plasmid ([…] each) were transfected separately in cultured HEK293A cells with the help of Lipofectamine2000 (Invitrogen). Cells were harvested in Lysis Buffer and protein solution was extracted as described previously. The Lysis Buffer used to harvest COP1 overexpressing cells had 0.1% SDS supplemented in it. The concentration of protein was estimated using Bradford assay. For source of E3 ligase, the total cell lysate from COP1 overexpressing HEK293A cells were used.
Chain of COP1 (Homo sapiens, UniProt Q8NHY2) (Q8NHY2 whole entry): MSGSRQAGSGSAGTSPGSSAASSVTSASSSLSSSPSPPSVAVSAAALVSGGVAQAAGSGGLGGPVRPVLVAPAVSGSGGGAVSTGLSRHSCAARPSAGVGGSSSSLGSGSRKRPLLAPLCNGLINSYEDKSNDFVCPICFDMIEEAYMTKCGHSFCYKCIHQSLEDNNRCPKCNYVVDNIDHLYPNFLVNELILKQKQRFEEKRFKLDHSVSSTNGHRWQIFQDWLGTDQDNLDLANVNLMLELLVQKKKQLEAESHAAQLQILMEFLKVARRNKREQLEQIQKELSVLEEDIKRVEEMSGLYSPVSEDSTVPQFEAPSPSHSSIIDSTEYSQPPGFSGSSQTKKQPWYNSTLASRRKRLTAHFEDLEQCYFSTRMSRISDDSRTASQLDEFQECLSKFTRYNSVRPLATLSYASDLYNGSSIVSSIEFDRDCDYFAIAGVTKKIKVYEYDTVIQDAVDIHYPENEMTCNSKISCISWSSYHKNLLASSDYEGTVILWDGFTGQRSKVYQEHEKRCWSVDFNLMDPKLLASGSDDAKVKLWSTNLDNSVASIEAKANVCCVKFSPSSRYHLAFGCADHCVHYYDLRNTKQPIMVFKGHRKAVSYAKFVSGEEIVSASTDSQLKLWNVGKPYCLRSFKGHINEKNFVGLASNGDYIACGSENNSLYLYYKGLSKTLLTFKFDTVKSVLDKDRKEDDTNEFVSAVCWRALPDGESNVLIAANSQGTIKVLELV
For purification of Myc-ATGL: 1 ml of Ni^2+-NTA resin (Roche) was taken in a 15 ml centrifuge tube and centrifuged at 2000 RPM for 5 minutes. The upper ethanol layer was discarded and the pellet was washed in 1×PBS twice to remove any remaining traces of ethanol. The pellet was finally washed once with Lysis Buffer for equilibration. […] The tube was incubated overnight at 4° C. in a rotary shaker.
The next day, the solution was centrifuged at 2000 RPM for 10 minutes and the supernatant collected. Lysis Buffer (containing protease inhibitor cocktail twice the previous concentration) was used for washing the beads twice to remove non-specific and unattached reactants in a stringent condition. The beads were finally washed once with 1×PBS containing the same amount of protease inhibitor for equilibration. 300 μl of 500 mM Imidazole (Sigma Aldrich) solution in 1×PBS was added to the resin for elution of ATGL and centrifuged at 2000 RPM for 30 minutes and the eluted protein was collected. To the separated resin, 300 μl of 1M Imidazole solution was added and centrifuged at 2000 RPM for 30 minutes and the second elute was collected. […] of eluted protein from each elution was boiled with 5 μl of Laemmli's buffer at 95° C. for 10 minutes and run in 10% SDS-PAGE gel. The supernatant collected before elution of ATGL and the proteins still attached to the Ni^2+-NTA resin were also run in the SDS-PAGE. The resolved proteins were subsequently transferred on PVDF membranes and probed with anti-myc primary antibody to check the presence of purified ATGL in the elute. Also to check the yield of the purified protein, 40 μl of the elute was run in 10% SDS page and stained with Coomassie Brilliant Blue solution followed by destaining with methanol, glacial acetic acid and water in a 50:40:10 ratio.
For identifying the E2 ubiquitin-conjugating enzyme responsible for ATGL ubiquitination by COP1, an in vitro ubiquitinylation kit (Enzo Life Sciences) was used. The assay was reconstituted as per manufacturer's protocol with the panel of E2 conjugating enzymes provided and other required components at the mentioned concentrations. The reaction was carried out for 6 hours following which it was quenched as per directions with the provided 2× non-reducing gel buffer and then analysed by western blotting.
Having identified the E2 ubiquitin conjugating enzyme as UbcH6, ubiquitination assay was set up in vitro as described previously with 5 μM of the compound 9, 107, 171, 179 and 73 followed by quenching and analysis by western blotting.
Ubiquitination of a target protein is carried out in a three step process involving three different enzymes: E1 ubiquitin activating enzyme, E2 ubiquitin conjugating enzyme and E3 ubiquitin ligase. In humans, there is only one E1 ubiquitin activating enzyme and multiple E2 and E3 enzymes. […]

For the compound `COCCn1cnc2ccc(NC(=O)Nc3cccc(C(C)=O)c3)cc2c1=O` [Compound 9, 1-(3-acetylphenyl)-3-(3-(2-methoxyethyl)-4-oxo-3,4-dihydroquinazolin-6-yl)urea], the “ATGL level in primary mouse hepatocytes” value in the data set with ATGL is given as “increase ATGL level; also recorded: subtle inclination towards increasing ATGL level”. In the data set on COP1 [1], the “COP1 mRNA level” value is “no significant changes”. Moreover, the “ATGL ubiquitination by COP1 in vitro” value on COP1 [2] is on record as “effective in reducing the ubiquitination of ATGL by COP1; also recorded: significant efficacy in curbing ATGL ubiquitination by COP1”.
The corresponding values for `COCCn1c(C)nc2ccc(NC(=O)Nc3cccc(C(C)=O)c3)cc2c1=O` [Compound 107, 1-(3-acetylphenyl)-3-(3-(2-methoxyethyl)-2-methyl-4-oxo-3,4-dihydroquinazolin-6-yl)urea] are “increase ATGL level; also recorded: subtle inclination towards increasing ATGL level”, “no significant changes” and “effective in reducing the ubiquitination of ATGL by COP1; also recorded: significant efficacy in curbing ATGL ubiquitination by COP1”.
Regarding `COCC(C)n1cnc2ccc(NC(=O)Nc3cccc(C(C)=O)c3)cc2c1=O` (stereo not drawn) [Compound 179, 1-(3-acetylphenyl)-3-(3-(1-methoxypropan-2-yl)-4-oxo-3,4-dihydroquinazolin-6-yl)urea], in the data set on COP1 [1], the “COP1 mRNA level” value was “no significant changes”. Also, the “ATGL ubiquitination by COP1 in vitro” value on COP1 [2] is listed as “effective in reducing the ubiquitination of ATGL by COP1; also recorded: significant efficacy in curbing ATGL ubiquitination by COP1”.
On to `COCCn1c(CN2CCCCC2)nc2ccc(NC(=O)Nc3cccc(C(C)=O)c3)cc2c1=O` [Compound 238, 1-(3-acetylphenyl)-3-(3-(2-methoxyethyl)-4-oxo-2-(piperidin-1-ylmethyl)-3,4-dihydroquinazolin-6-yl)urea], for which the “ATGL level in primary mouse hepatocytes” value in the data set on ATGL was “increase ATGL and COP1 levels dose dependently; also recorded: enhance ATGL levels at 1 μM and 5 μM doses”.
